From US12421269B2, “SGLT2/DPP4 inhibitor and application thereof” (CGeneTech (Suzhou, China) CO., Ltd., priority 2019, dated 2025)

Assays:
Human-SGLT2 = target: T1, Human-SGLT2 (Homo sapiens, UniProt P31639); experiment: SGLT2 glucose transport assay ([14C]-labeled glucose uptake); assay type: cell-based; settings: cells stably expressing Human-SGLT2, 37° C., 2 hours
T1 sequence (P31639 1-672): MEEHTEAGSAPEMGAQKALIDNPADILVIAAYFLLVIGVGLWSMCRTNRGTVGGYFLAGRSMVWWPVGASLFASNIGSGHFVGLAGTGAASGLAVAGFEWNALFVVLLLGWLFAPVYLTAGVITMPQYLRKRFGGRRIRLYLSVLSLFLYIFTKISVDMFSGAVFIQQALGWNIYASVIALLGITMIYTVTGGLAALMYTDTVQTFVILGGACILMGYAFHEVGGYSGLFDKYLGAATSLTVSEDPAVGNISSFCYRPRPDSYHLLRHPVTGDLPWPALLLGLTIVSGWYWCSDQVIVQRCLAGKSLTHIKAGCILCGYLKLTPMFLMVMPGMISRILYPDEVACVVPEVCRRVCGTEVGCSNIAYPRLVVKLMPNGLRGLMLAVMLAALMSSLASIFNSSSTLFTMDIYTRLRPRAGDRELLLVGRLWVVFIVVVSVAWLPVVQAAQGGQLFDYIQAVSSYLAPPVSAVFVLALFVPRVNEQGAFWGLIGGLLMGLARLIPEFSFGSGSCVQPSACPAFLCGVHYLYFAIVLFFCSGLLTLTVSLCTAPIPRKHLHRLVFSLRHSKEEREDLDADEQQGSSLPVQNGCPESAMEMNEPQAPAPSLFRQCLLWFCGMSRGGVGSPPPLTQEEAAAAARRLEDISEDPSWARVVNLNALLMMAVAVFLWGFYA
Description: To test the effect of compounds on the glucose transport activity of SGLT2 transporters by measuring the amount of [^14C]-labeled glucose entering highly expressed Human-SGLT2 cells.
The cells stably expressing Human-SGLT2 used for the experiments were constructed by WuXi AppTec Shanghai. SGLT2 cells were plated in 96-well cell culture plates (Greiner) and cultured overnight at 5% CO2, 37° C.
Experimental buffer: 10 mM 4-hydroxyethylpiperazine ethanesulfonic acid (HEPES), 1.2 mM magnesium chloride (MgCl2), 4.7 mM potassium chloride (KCl), 2.2 mM calcium chloride (CaCl2) and 120 mM sodium chloride (NaCl).
Termination buffer: 10 mM 4-hydroxyethylpiperazine ethanesulfonic acid (HEPES), 1.2 mM magnesium chloride (MgCl2), 4.7 mM potassium chloride (KCl), 2.2 mM calcium chloride (CaCl2), 120 mM sodium chloride (NaCl) and 1 μM LX4211.
The compounds were diluted with 100% dimethyl sulfoxide (DMSO) at a starting concentration of 10 μM, 8 points of 5-fold serial gradient dilution was made.
6 μM [^14C]-labeled methyl α-D-glucopyranoside was prepared with experimental buffer.
Cells were treated with 49 μL of experimental buffer, 1 μL of gradient-diluted compound, and 50 μL of 6 μM [^14C]-isotope-labeled glucose solution at 37° C. for 2 hours.
The liquid in the wells was aspirated and the cells were washed 3 times with termination buffer.
The cells were lysed with 50 μL of 10% sodium hydroxide solution, and the cell lysate was aspirated into a scintillation tube, and 2 mL of scintillation solution was added.
Readings were taken with an isotope detector (Tricarb).
The data were calculated by GraphPad Prism 5.0 software using the formula: log (inhibitor) vs. response—Variable slope to obtain the IC50 values of the tested compounds, and the experimental results are shown in Table 5.

SD Rat = experiment: Oral glucose tolerance (OGTT) in rats; assay type: in vivo; settings: male SD rats, single gavage dose, Canagliflozin 3 mg/kg, test compound 10 mg/kg
Description: The animals will be acclimatized in the animal room for 1 week after arrival at the facility.
The animals are fasted for 16 hours in the metabolic cage and given the drug or solvent (5 mL/kg) according to the table above, followed immediately by 50% glucose solution (2 g/kg, 4 mL/kg).
After 1 hour of glucose administration, the animals resumed feeding, and blood samples were collected at 0 min, 20 min, 40 min, 60 min, 90 min and 120 min for blood glucose measurement; urine at 0 to 24 hours was used for urinary glucose (mg/200 g) and urine volume test, respectively.
All values were expressed as mean values. Statistical analysis was performed using Graphpad Prism 6 single factor analysis of variance Tukey's multiple comparison test. The p-value less than 0.05 was considered statistically significant.

Row | SMILES | IC50 (Human-SGLT2) [µM] | OGTT blood glucose levels AUC0-2hr (SD Rat; glucose 2 g/kg) [mmol/L/min] | Urinary glucose level (SD Rat; urine 0 to 24 hours) [mg/200 gBW] | Urine volume (SD Rat; urine 0 to 24 hours) [mL/200 gBW]
1 | CS[C@H]1O[C@@H](c2cc(Cc3ccc(O[C@@H]4CCN([C@H]5CO[C@H](c6cc(F)ccc6F)[C@@H](N)C5)C4)cc3)c(F)cc2F)[C@H](O)[C@@H](O)[C@@H]1O [WX006] | 0.00702 |  |  | 
2 | CS[C@H]1O[C@@H](c2ccc(F)c(Cc3ccc(O[C@@H]4CCN([C@H]5CO[C@H](c6cc(F)ccc6F)[C@@H](N)C5)C4)cc3)c2)[C@H](O)[C@@H](O)[C@@H]1O [WX001] | 0.0218 | 869 | 0.7 | 10.6
